Here are results for 21 compounds from US12338237B2, “Derivatives having 1,2,3,4-tetrahydronaphthalene moiety or pharmaceutically acceptable salt thereof and pharmaceutical compositions comprising the same” (YUHAN CORPORATION, priority 2019, dated 2025).

pIC50: −log10 of the molar value.

The target of assay [1] is glucosylceramide synthase (GCS) (Homo sapiens (Human), UniProt Q16739). Description: Evaluation of inhibitory activities against GCS (enzyme reaction with A549 cell lysate, NBD C6-ceramide, HPLC fluorescence). The class given is biochemical. The note with it: GCS activity in A549 cell lysate, 37° C. for 90 minutes. In outline:
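Lysate of A549 cells in 50 mM HEPES pH 7.3 incubated with test compound and NBD C6-ceramide at 37 °C for 90 min; lipids extracted with chloroform/methanol and GlcCer and ceramide peaks quantified by HPLC fluorescence. Activity from GlcCer area fraction, normalised between DMSO and ibiglustat controls.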

Another assay deals with GM1 production. Description: cells. Format: cell-based. The note with it: Homo sapiens, Jurkat, 72 h.

glucosylceramide synthase (GCS), sequence (Q16739 whole entry, looked up): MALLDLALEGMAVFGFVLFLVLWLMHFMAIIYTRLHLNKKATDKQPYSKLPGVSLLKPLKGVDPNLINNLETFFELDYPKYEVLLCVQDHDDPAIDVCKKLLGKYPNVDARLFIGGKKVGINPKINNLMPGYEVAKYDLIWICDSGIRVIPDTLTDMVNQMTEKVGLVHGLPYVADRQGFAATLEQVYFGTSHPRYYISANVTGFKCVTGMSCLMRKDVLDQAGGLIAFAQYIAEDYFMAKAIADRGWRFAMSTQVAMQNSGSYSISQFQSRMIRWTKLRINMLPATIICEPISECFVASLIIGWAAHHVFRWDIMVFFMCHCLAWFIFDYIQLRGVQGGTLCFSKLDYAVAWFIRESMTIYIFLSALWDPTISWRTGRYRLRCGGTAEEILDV

Turning to `CC1(C)CCc2ccc(-c3cccc(F)c3)cc2C1NC(=O)O[C@@H]1CN2CCC1CC2` (stereo partly drawn) [Example 155, (S)-quinuclidin-3-yl (7-(3-fluorophenyl)-2,2-dimethyl-1,2,3,4-tetrahydronaphthalen-1-yl)carbamate], the pIC50 is 7.68 in assay [1] and 6.97 in the assay with GM1 production.
For `CC1(C)CCc2ccc(-c3cccc(Cl)c3)cc2C1NC(=O)O[C@@H]1CN2CCC1CC2` (stereo partly drawn) [Example 156, (S)-quinuclidin-3-yl (7-(3-chlorophenyl)-2,2-dimethyl-1,2,3,4-tetrahydronaphthalen-1-yl)carbamate], the pIC50 is 7.71 in assay [1] and 6.88 in the assay on GM1 production.
In the same order, the values of `CC1(C)CCc2ccc(-c3cccc(C(F)(F)F)c3)cc2C1NC(=O)O[C@@H]1CN2CCC1CC2` (stereo partly drawn) [Example 157, (S)-quinuclidin-3-yl (2,2-dimethyl-7-(3-(trifluoromethyl)phenyl)-1,2,3,4-tetrahydronaphthalen-1-yl)carbamate] are 7.49 and 6.92.
On the same counts, the results for `CC1(C)CCc2ccc(-c3cccc(OC(F)(F)F)c3)cc2C1NC(=O)O[C@@H]1CN2CCC1CC2` (stereo partly drawn) [Example 158, (S)-quinuclidin-3-yl (2,2-dimethyl-7-(3-(trifluoromethoxy)phenyl)-1,2,3,4-tetrahydronaphthalen-1-yl)carbamate] are 7.47 and 6.60.
In the same order, the values of `CC1(C)CCc2ccc(-c3ccccc3F)cc2C1NC(=O)O[C@@H]1CN2CCC1CC2` (stereo partly drawn) [Example 159, (S)-quinuclidin-3-yl (7-(2-fluorophenyl)-2,2-dimethyl-1,2,3,4-tetrahydronaphthalen-1-yl)carbamate] are 7.96 and 7.30.
With `CC1(C)CCc2ccc(-c3ccccc3Cl)cc2C1NC(=O)O[C@@H]1CN2CCC1CC2` (stereo partly drawn) [Example 160, (S)-quinuclidin-3-yl (7-(2-chlorophenyl)-2,2-dimethyl-1,2,3,4-tetrahydronaphthalen-1-yl)carbamate], the pIC50 in assay [1] is 7.84; in the assay with GM1 production, 7.17.
As for `CC1(C)CCc2ccc(-c3ccccc3C(F)(F)F)cc2C1NC(=O)O[C@@H]1CN2CCC1CC2` (stereo partly drawn) [Example 161, (S)-quinuclidin-3-yl (2,2-dimethyl-7-(2-(trifluoromethyl)phenyl)-1,2,3,4-tetrahydronaphthalen-1-yl)carbamate], the results for the pIC50 (in assay [1]; with GM1 production) were 7.58 and 6.92, respectively.
For the compound `CC1(C)CCc2ccc(-c3ccccc3OC(F)(F)F)cc2C1NC(=O)O[C@@H]1CN2CCC1CC2` (stereo partly drawn) [Example 162, (S)-quinuclidin-3-yl (2,2-dimethyl-7-(2-(trifluoromethoxy)phenyl)-1,2,3,4-tetrahydronaphthalen-1-yl)carbamate], the pIC50 in assay [1] is 7.98; in the assay with GM1 production, 7.24.
As for `CC1(C)CCc2ccc(-c3ccc(OC(F)F)cc3)cc2C1NC(=O)O[C@@H]1CN2CCC1CC2` (stereo partly drawn) [Example 164, (S)-quinuclidin-3-yl (7-(4-(difluoromethoxy)phenyl)-2,2-dimethyl-1,2,3,4-tetrahydronaphthalen-1-yl)carbamate], the figures for the pIC50 (in assay [1]; in the assay on GM1 production) were 8.03 and 7.58, respectively.
On the same counts, the results for `COCCOc1ccc(-c2ccc3c(c2)C(NC(=O)O[C@@H]2CN4CCC2CC4)C(C)(C)CC3)cc1` (stereo partly drawn) [Example 165, (S)-quinuclidin-3-yl (7-(4-(2-methoxyethoxy)phenyl)-2,2-dimethyl-1,2,3,4-tetrahydronaphthalen-1-yl)carbamate] are 7.74 and 7.61.
On the same counts, the results for `COCCOc1cccc(-c2ccc3c(c2)C(NC(=O)O[C@@H]2CN4CCC2CC4)C(C)(C)CC3)c1` (stereo partly drawn) [Example 166, (S)-quinuclidin-3-yl (7-(3-(2-methoxyethoxy)phenyl)-2,2-dimethyl-1,2,3,4-tetrahydronaphthalen-1-yl)carbamate] are 7.25 and 6.41.
For `COCCOc1ccccc1-c1ccc2c(c1)C(NC(=O)O[C@@H]1CN3CCC1CC3)C(C)(C)CC2` (stereo partly drawn) [Example 167, (S)-quinuclidin-3-yl (7-(2-(2-methoxyethoxy)phenyl)-2,2-dimethyl-1,2,3,4-tetrahydronaphthalen-1-yl)carbamate], the pIC50 in assay [1] was 7.71; in the assay with GM1 production it was 6.99.
On the same counts, the results for `COCOc1ccc(-c2ccc3c(c2)C(NC(=O)O[C@@H]2CN4CCC2CC4)C(C)(C)CC3)cc1` (stereo partly drawn) [Example 168, (S)-quinuclidin-3-yl (7-(4-(methoxymethoxy)phenyl)-2,2-dimethyl-1,2,3,4-tetrahydronaphthalen-1-yl)carbamate] are 7.75 and 7.15.
On the same counts, the results for `COCOc1cccc(-c2ccc3c(c2)C(NC(=O)O[C@@H]2CN4CCC2CC4)C(C)(C)CC3)c1` (stereo partly drawn) [Example 169, (S)-quinuclidin-3-yl (7-(3-(methoxymethoxy)phenyl)-2,2-dimethyl-1,2,3,4-tetrahydronaphthalen-1-yl)carbamate] are 7.39 and 6.35.
In the same order, the values of `COCOc1ccccc1-c1ccc2c(c1)C(NC(=O)O[C@@H]1CN3CCC1CC3)C(C)(C)CC2` (stereo partly drawn) [Example 170, (S)-quinuclidin-3-yl (7-(2-(methoxymethoxy)phenyl)-2,2-dimethyl-1,2,3,4-tetrahydronaphthalen-1-yl)carbamate] are 8.03 and 7.41.
Turning to `O=C(NC1c2cc(-c3ccc(F)cc3)ccc2CCC12CC2)O[C@@H]1CN2CCC1CC2` (stereo partly drawn) [Example 171, (S)-quinuclidin-3-yl (7′-(4-fluorophenyl)-3′,4′-dihydro-1′H-spiro[cyclopropane-1,2′-naphthalen]-1′-yl)carbamate], the pIC50 in assay [1] was 8.27; in the assay on GM1 production, 7.02.
With `O=C(NC1c2cc(-c3ccc(Cl)cc3)ccc2CCC12CC2)O[C@@H]1CN2CCC1CC2` (stereo partly drawn) [Example 172, (S)-quinuclidin-3-yl (7′-(4-chlorophenyl)-3′,4′-dihydro-1′H-spiro[cyclopropane-1,2′-naphthalen]-1′-yl)carbamate], the pIC50 is 8.32 in assay [1] and 7.17 in the assay on GM1 production.
On the same counts, the results for `O=C(NC1c2cc(-c3ccc(C(F)(F)F)cc3)ccc2CCC12CC2)O[C@@H]1CN2CCC1CC2` (stereo partly drawn) [Example 173, (S)-quinuclidin-3-yl (7′-(4-(trifluoromethyl)phenyl)-3′,4′-dihydro-1′H-spiro[cyclopropane-1,2′-naphthalen]-1′-yl)carbamate] are 8.79 and 7.72.
In the same order, the values of `O=C(NC1c2cc(-c3ccc(OC(F)(F)F)cc3)ccc2CCC12CC2)O[C@@H]1CN2CCC1CC2` (stereo partly drawn) [Example 174, (S)-quinuclidin-3-yl (7′-(4-(trifluoromethoxy)phenyl)-3′,4′-dihydro-1′H-spiro[cyclopropane-1,2′-naphthalen]-1′-yl)carbamate] are 8.36 and 7.41.
On the same counts, the results for `O=C(NC1c2cc(-c3cccc(F)c3)ccc2CCC12CC2)O[C@@H]1CN2CCC1CC2` (stereo partly drawn) [Example 175, (S)-quinuclidin-3-yl (7′-(3-fluorophenyl)-3′,4′-dihydro-1′H-spiro[cyclopropane-1,2′-naphthalen]-1′-yl)carbamate] are 7.83 and 6.78.
With `O=C(NC1c2cc(-c3cccc(Cl)c3)ccc2CCC12CC2)O[C@@H]1CN2CCC1CC2` (stereo partly drawn) [Example 176, (S)-quinuclidin-3-yl (7′-(3-chlorophenyl)-3′,4′-dihydro-1′H-spiro[cyclopropane-1,2′-naphthalen]-1′-yl)carbamate], the results for the pIC50 (in assay [1]; in the assay with GM1 production) were 7.83 and 6.68, respectively.

The pIC50 is −log10 of the IC50, conventionally taken in molar units. A high value points to a small IC50.
